The values below come from patent US9359281B2, “Enantiomers of 2-hydroxy derivatives of fatty acids” (UNIVERSITAT DE LES ILLES BALEARS, priority 2011, dated 2016).

Assay [1] has as its system U87 cells. As to the kind of experiment: Cell growth inhibition, U87. The assay is classed as cell-based, human. On the set-up: key to Effect (anti-proliferation effect): +: inhibition of cell growth; −: absence of effect. Conditions: for IC50: U87, sodium salt form. The source says:
(§1) At this respect, concentrations which inhibit growth of tumour cells (IC50) are lower for the enantiomer S ([−]) in all studied tumour lines (Table 5). […] In all of the cases, the molecules employed were in the form of sodium salt.

The subject of assay [2] is HeLa cells. As to the kind of experiment: Cell growth inhibition, HeLa. Format: cell-based, human. On the set-up: key to Effect (anti-proliferation effect): +: inhibition of cell growth; −: absence of effect. Conditions: for IC50: sodium salt form.
Excerpt: as §1

The subject of assay [3] is Jurkat cells. As to the kind of experiment: Cell growth inhibition, Jurkat. Format: cell-based, human. On the set-up: key to Effect (anti-proliferation effect): +: inhibition of cell growth; −: absence of effect. As to conditions: for IC50: sodium salt form.
Excerpt: as §1

The test system of assay [4] is human lung cancer cells (A549). As to the kind of experiment: Volume of tumours derived from human lung cancer cells (A549) in mice. Format: in vivo. Conditions: 600 mg/kg·day, 15 days, orally. On the procedure:
A. Effect on the volume of tumours derived from human lung cancer cells (A549): immuno-depressed mice were infected with human lung cancer cells and 7 days later (when the tumours were observable), treatments started with vehicle (control), 2OHOA racemic (+/−), and optic isomers [−]2OHOA and [+]2OHOA (600 mg/kg·day, 15 days, orally). The bars correspond to values of an average±EEM (n=3-5) of the increase in volume (mm^3) of the tumours (n=6).
On the other hand, we investigated the antitumoral activity of these compounds in different types of human cancer (see Tables 2, 4 and 5). […] Furthermore, the activity of these enantiomers was proven against a vast variety of human cancers of different nature, since it can be stated that enantiomers [−] of 2-hydroxylated fatty acids have a high potency in the treatment of any type of cancer.

Assay [5] deals with hypertense rats (strain SHR). As to the kind of experiment: Systolic arterial pressure in SHR rats. Format: in vivo. As to conditions: 600 mg/kg every 12 h, 15 days, orally. On the procedure:
B. Effects on arterial pressure: hypertense rats (strain SHR) were treated with 2OHOA racemic (+/−) and its optic isomers [−]2OHOA and [+]2OHOA (600 mg/kg every 12 h, 15 days, orally). […] Values of average±EEM systolic pressure (n=6) are shown.
What is more, we studied the effect of the isomers above on arterial pressure, body weight, and the level of cholesterol, triglycerides and glycemia (glucose in plasma) in SHR rats SHR (FIGS. 8B, 8C and 8D and 8E). […] Similarly, during 1 and 5 days of treatment, rats treated with the racemic loosed 11 gram of weight (approximately a 3% of their body weight), whereas animals of the group treated with enantiomer [−]2OHOA loosed 21 grams and animals of the group treated with enantiomer [+]2OHOA only loosed 7 grams of weight. On the other hand, a higher effect of enantiomer [+]2OHOA in the reduction of triglyceride (TG) and total cholesterol (CHOt) levels was observed (FIG. 8D) At this respect, plasmatic basal levels of TG in SHR rats are of 108 mg/dl and were reduced to 56 mg/dl after 2 weeks treatment […]. On the other hand, treatment with enantiomer [+]2OHOA inducted a reduction of plasmatic TG levels to 47 mg/dl, whereas enantiomer [−]2OHOA only produced a modest reduction to 81 mg/dl. […]

Assay [6] relates to SF767 cells. In words: Levels of SM in cell membranes, SF767. Format: cell-based, human. As to the method: (§2) At the same time, we have studied the anti-tumoral effect on these and other tumoral lines (see Table 2). The cells were treated in vehicle (water with 5% ethanol, control) or with compound 2OHOA for 24 hours in a concentration of 200 μM. The values of the ordinate axis represent the average±ESM (error standard mean for a number of experiments n=3-5) of SM levels (percent of total phospholipids), determined by chromatographic processes (followed by spectroscopy and image analysis), as a percentage of the total number of lipids compared with untreated cells (control). […] In addition to the techniques for measuring enzyme activity and levels of SM described above, other techniques have been tested which lead to very similar results as, gas chromatography, confocal microscopy, fluorescence spectroscopy, etc.
(§3) The levels of SM, cultivated in the absence (control) or presence of 200 μM of [−]2OHOA, in normal cell membranes (MRC-5 and IMR90) were measured, and also in several types of tumoral cells (see Table 2). In all cases, we detected that the membranes of tumoral cells have SM levels of about half or a third of that in normal cells (FIG. 1). […] For example, the spectrophotometry determination of solution fluorescence of the SM levels is a very simple, quick and efficient analysis method (FIG. 1D). […]

The test system of assay [7] is Jurkat cells. As to the kind of experiment: Levels of SM in cell membranes, Jurkat. The assay is classed as cell-based, human. On the procedure:
as §2, §3

The test system of assay [8] is MRC-5 cells. As to the kind of experiment: Levels of SM in cell membranes, MRC-5. Format: cell-based, human. As to the method: as §2, §3
For assay [9], the system named is enzyme EC 2.3.1.50. In words: [3H]palmitate incorporation in lipid fractions of U118 cells. The assay is classed as cell-based, human. Also on record: dose or concentration left out as unconfirmed. Conditions: U118, 24 h. As to the method:
FIG. 9. Regulation of the activity of enzyme 2.3.1.50.
We incubated human glioma cells U118 in the presence or absence (control) of 2OHOA ([…], 24 h) and later incubated them with [^3H]palmitate for 5 minutes. After these periods of incubation, we extracted the cellular lipids and separated them by TLC. The bands correspond to each species of lipid extracted and the amount of radioactive palmitate incorporated was measured by liquid shining. As we can see, not only was there an important incorporation of the fraction of the SM (an indicator of the activity of enzyme EC 2.7.8.27), but also in the fraction of the ceramide, which indicates activity of enzyme EC 2.3.1.50 (serin-palmitoil transferase).

Assay [10] deals with A549 cells. In words: Levels of SM in cell membranes, A549. Format: cell-based, human. As to the method: as §2, §3
The test system of assay [11] is 1321N1 cells. As to the kind of experiment: Levels of SM in cell membranes, 1321N1. The assay is classed as cell-based, human. As to the method: as §2, §3
For assay [12], the system named is HT29 cells. In words: Levels of SM in cell membranes, HT29. Format: cell-based, human. As to conditions: HT29, 200 μM [−]2OHOA. As to the method: The levels of SM, cultivated in the absence (control) or presence of 200 μM of [−]2OHOA, in normal cell membranes (MRC-5 and IMR90) were measured, and also in several types of tumoral cells (see Table 2). In all cases, we detected that the membranes of tumoral cells have SM levels of about half or a third of that in normal cells (FIG. 1). We can therefore assert that SM concentration is a biomarker which indicates tumorgenesis in human cells. On the other hand, treatments with the molecules of the present invention induce an increase of SM in the tumour cells which is not naturally occurring. […] For example, the spectrophotometry determination of solution fluorescence of the SM levels is a very simple, quick and efficient analysis method (FIG. 1D). Thus, this invention has generated a method for diagnosis for detecting the described pathological processes and pathologies in which there are SM level changes, and also for monitoring the efficiency of the therapy using molecules of the present invention and others of similar activity. Based on this knowledge, this invention also includes kits for diagnosing these diseases.

As a reminder, the IC50 is the concentration that inhibits the measured activity by half. In the case of `CCCCCCCC/C=C\CCCCCCC(O)C(=O)O` (centres unmarked) [[+]2OHOA] [[+]HOOC—HOCH—(CH2)6—(CH═CH—CH2)1—(CH2)6—CH3], the IC50 in [1] was 148 µM; in assay [2], 206 µM; in assay [3], 97.2 µM. Also, the “volume of tumours derived from A549 cells” value (shortened to “volume of tumours derived”) in assay [4] is on record as “no significant changes in the volume of tumours”. Moreover, the “effect on systolic arterial pressure” value in assay [5] is given as “considerable therapeutic effect but of lower amplitude”.

On to `CCCCCCCC/C=C\CCCCCCC(O)C(=O)O` (racemic) [2OHOA, 2-hydroxyoleic acid], for which the “synthesis of SM” value in assay [6] (SF767, 200 μM, 24 hours) was “significant increase”; in assay [7] (200 μM, 24 hours), “significant increase”; in assay [8] (MRC5, 200 μM, 24 hours), “not in non-tumoral cells”; in assay [10] (A549, 200 μM, 24 hours), “significant increase”; in assay [11] (1321N1, 200 μM, 24 hours), “significant increase”. Also, the IC50 in [1] (Homo sapiens, U-87 MG) was 81.6 µM; in assay [2] (Homo sapiens) it was 127 µM; in [3] (Homo sapiens) it was 62.9 µM. Further, in assay [4], the “volume of tumours derived” value is listed as “significant reductions”. Moreover, the “activity of enzyme EC 2.3.1.50 ([3H]palmitate in ceramide fraction)” value in assay [9] is “specific activator of enzyme EC 2.3.1.50”. Besides, the “effect on systolic arterial pressure” value in [5] is recorded as “considerable therapeutic effect but of lower amplitude”.

Regarding `CCCCCCCC/C=C\CCCCCCC(O)C(=O)O` (centres unmarked) [[−]2OHOA] [[−] HOOC—HOCH—(CH2)6—(CH═CH—CH2)1—(CH2)6—CH3], the “% SM after treatment” value in assay [6] (SF767, 200 μM [−]2OHOA) came to 24%; in assay [7] (200 μM [−]2OHOA), 27%; in assay [8] (MRC-5 non-tumoral fibroblast, 200 μM [−]2OHOA), 24%; in assay [12], 21%; in assay [10] (A549, 200 μM [−]2OHOA), 33%; in assay [11] (1321N1, 200 μM [−]2OHOA), 27%. The “Effect (anti-proliferation effect)” value in assay [1] (U87), in [2] and in assay [3] was “+” in each case. Moreover, the IC50 in [1] was found to be 53.5 µM; in assay [2], 74.5 µM; in [3], 35.7 µM. In [4], the “volume of tumours derived” value is reported as “significant reductions compared with all the other treatments”.
